Experimental findings from ChEMBL document CHEMBL3880404, “Aminopyrimidines useful as kinase inhibitors” (2007) are described below.

In assay [1] the target is Aurora kinase B (Homo sapiens, UniProt Q96GD4). Briefly: Inhibition of Aurora-1 (unknown origin) incubated for 10 mins using Kemptide substrate and [gamma-33P]-ATP measured after 3 hrs by liquid scintillation counting based radiometric assay.
Assay [2] deals with T1, Aurora kinase A (Homo sapiens, UniProt O14965).
T1 sequence (O14965 whole entry): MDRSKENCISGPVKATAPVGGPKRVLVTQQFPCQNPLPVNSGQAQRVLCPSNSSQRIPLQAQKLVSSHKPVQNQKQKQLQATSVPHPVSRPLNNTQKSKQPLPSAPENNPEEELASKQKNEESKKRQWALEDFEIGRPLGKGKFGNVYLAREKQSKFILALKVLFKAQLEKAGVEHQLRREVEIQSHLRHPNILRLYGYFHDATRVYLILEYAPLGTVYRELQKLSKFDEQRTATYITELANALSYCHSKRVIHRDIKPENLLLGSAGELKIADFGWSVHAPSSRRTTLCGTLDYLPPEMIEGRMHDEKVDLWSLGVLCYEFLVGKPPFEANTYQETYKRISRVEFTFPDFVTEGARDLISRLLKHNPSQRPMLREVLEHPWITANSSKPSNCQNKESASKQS
Briefly: Inhibition of Aurora-2 (unknown origin) pre-incubated with substrate for 10 mins before enzyme addition and measured after 10 mins post enzyme addition using Kemptide substrate by pyruvate kinase and LDH based standard coupled enzyme assay.

Assay [3] addresses Tyrosine-protein kinase JAK2 (Homo sapiens, UniProt O60674). Description: Inhibition of JAK2 (unknown origin) using poly(Glu)4Tyr substrate and [gamma-33P]-ATP incubated for 20 mins by Top-count assay.
Assay [4] deals with T2, Tyrosine-protein kinase JAK3 (Homo sapiens, UniProt P52333).
T2 sequence (P52333 whole entry): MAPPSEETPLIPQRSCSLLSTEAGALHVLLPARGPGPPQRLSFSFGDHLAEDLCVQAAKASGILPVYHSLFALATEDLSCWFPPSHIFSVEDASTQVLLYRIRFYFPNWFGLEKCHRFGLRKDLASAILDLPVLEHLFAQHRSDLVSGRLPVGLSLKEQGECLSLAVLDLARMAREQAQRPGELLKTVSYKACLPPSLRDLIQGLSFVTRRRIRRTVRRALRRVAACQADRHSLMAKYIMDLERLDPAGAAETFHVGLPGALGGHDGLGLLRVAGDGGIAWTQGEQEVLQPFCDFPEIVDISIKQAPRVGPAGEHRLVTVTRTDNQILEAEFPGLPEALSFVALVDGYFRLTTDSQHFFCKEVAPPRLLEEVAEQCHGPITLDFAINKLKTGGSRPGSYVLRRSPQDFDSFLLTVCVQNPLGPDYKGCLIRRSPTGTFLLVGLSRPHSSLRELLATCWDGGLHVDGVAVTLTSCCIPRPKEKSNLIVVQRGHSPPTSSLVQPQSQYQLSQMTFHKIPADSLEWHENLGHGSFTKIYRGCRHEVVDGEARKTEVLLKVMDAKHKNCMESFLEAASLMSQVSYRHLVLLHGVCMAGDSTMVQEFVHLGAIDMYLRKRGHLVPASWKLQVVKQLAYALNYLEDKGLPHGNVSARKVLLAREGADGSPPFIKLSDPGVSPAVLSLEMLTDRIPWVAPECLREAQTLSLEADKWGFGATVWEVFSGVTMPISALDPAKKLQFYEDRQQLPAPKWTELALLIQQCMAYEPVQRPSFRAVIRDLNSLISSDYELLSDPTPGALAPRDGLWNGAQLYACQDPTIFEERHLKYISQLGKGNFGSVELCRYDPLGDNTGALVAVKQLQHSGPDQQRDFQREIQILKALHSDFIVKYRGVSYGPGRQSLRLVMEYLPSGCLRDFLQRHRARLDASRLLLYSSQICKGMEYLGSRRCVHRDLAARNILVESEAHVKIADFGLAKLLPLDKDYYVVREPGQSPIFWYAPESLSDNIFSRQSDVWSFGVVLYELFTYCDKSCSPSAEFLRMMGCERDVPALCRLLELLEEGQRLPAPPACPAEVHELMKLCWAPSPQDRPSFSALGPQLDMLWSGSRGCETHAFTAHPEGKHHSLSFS
Briefly: Inhibition of JAK3 (unknown origin) using poly(Glu)4Tyr substrate and [gamma-33P]-ATP incubated for 20 mins by Top-count assay.

Sequence of Tyrosine-protein kinase JAK2 (O60674 whole entry): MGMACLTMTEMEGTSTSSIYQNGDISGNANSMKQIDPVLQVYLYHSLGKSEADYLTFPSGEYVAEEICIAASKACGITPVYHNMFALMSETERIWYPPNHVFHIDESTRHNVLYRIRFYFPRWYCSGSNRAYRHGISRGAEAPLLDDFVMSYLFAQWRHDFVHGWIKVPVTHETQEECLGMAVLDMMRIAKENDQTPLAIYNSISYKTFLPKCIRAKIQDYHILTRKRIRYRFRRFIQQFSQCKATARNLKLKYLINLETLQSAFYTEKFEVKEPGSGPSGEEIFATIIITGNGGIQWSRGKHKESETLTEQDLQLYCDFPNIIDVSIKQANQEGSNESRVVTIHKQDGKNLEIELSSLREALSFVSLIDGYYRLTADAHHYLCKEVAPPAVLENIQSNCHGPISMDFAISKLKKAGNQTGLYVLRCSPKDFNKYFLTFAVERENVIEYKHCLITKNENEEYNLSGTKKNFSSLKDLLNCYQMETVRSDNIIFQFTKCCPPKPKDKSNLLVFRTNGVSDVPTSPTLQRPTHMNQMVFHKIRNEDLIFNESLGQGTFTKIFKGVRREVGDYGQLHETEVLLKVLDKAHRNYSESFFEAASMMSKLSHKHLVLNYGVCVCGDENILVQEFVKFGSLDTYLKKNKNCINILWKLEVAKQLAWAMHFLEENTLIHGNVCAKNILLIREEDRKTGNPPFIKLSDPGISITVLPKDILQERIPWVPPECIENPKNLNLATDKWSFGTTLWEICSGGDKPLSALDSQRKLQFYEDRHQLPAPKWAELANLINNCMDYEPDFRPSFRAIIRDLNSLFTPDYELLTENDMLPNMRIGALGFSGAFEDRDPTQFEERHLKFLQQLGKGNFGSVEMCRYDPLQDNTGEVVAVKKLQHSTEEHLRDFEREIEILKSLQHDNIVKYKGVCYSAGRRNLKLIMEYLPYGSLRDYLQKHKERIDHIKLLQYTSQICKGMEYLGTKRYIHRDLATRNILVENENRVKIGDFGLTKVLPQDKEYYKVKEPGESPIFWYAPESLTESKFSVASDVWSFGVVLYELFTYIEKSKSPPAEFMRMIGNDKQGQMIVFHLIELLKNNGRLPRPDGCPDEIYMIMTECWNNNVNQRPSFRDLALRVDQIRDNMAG
Sequence of Aurora kinase B (Q96GD4 whole entry): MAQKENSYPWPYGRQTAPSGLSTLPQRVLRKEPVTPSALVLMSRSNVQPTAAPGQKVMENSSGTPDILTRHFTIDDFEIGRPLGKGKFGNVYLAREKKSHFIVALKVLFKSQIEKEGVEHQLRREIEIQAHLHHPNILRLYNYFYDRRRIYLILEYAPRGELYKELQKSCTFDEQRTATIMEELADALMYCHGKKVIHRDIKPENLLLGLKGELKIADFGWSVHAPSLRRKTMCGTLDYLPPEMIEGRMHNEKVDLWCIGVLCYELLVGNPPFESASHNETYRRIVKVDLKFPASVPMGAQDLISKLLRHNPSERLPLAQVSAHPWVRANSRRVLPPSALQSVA

Usually Ki stands for the dissociation constant of the complex between target and ligand, obtained from inhibition or displacement. High values mean a looser hold on the target, low ones a stronger hold on the target. Take `Cc1cc(Nc2cc(N3CC(F)(C4CC4)C3)nc(O[C@H]3CCN(C(=O)OC(C)(C)C)C3)n2)[nH]n1`: the Ki is below 500 nM in assay [1], below 10 nM in assay [2], below 100 nM in assay [3] and below 500 nM in assay [4].

For the compound `Cc1cc(Nc2cc(N3CCC3)nc(O[C@H]3CCN(C(=O)OC(C)(C)C)C3)n2)[nH]n1`, the Ki in assay [1] and in assay [4] was below 500 nM throughout.

On to `Cc1cc(Nc2cc(N3CC(F)(C4CC4)C3)nc(O[C@H]3CCN(C(=O)c4cc(Cl)ccc4F)C3)n2)n[nH]1` [MK-6592], for which the Ki in assay [2] was below 10 nM; in assay [3] it was below 100 nM.
